Values after ≈ are worked out from the molar mass of the structure shown.
Key:
Type in all cases: functional
Staphylococcus aureus [1] = experiment: Minimum inhibitory concentration against Staphylococcus aureus A5177 (erythromycin-resistant strain
Streptococcus pyogenes [2] = experiment: Minimum inhibitory concentration against Streptococcus pyogenes 930 (erythromycin-resistant strain)
Staphylococcus aureus [3] = experiment: Minimum inhibitory concentration against Staphylococcus aureus 6538P (erythromycin-susceptible strain)
Streptococcus pneumoniae [4] = experiment: Minimum inhibitory concentration against Streptococcus pneumoniae 5649 strain
Streptococcus pyogenes [5] = experiment: Minimum inhibitory concentration against Streptococcus pyogenes EES61 (erythromycin-susceptible strain)
Streptococcus pneumoniae [6] = experiment: Minimum inhibitory concentration against Streptococcus pneumoniae ATCC 6303 (erythromycin-susceptible strain)
Haemophilus influenzae = experiment: Minimum inhibitory concentration against Haemophilus influenzae GYR1435 (erythromycin susceptible strain)
Streptococcus pneumoniae [7] = experiment: Minimum inhibitory concentration against Streptococcus pneumoniae 5979 strain

Row | Structure (SMILES) | MIC (Staphylococcus aureus [1]) | MIC (Streptococcus pyogenes [2]) | MIC (Staphylococcus aureus [3]) | MIC (Streptococcus pneumoniae [4]) | MIC (Streptococcus pyogenes [5]) | MIC (Streptococcus pneumoniae [6]) | MIC (Haemophilus influenzae) | MIC (Streptococcus pneumoniae [7])
1 | CC[C@H]1OC(=O)[C@H](C)C(=O)[C@H](C)[C@@H](O[C@@H]2O[C@H](C)C[C@H](N(C)C)[C@H]2O)[C@@](C)(OCC#CCCc2ccc(-c3cccs3)cc2)C[C@@H](C)C2=NCCN3C(=O)O[C@@]1(C)[C@H]3[C@H]2C | 0.5 µg/mL (≈ 0.59 µM) | 0.5 µg/mL (≈ 0.59 µM) | 1 µg/mL (≈ 1.18 µM) | 0.25 µg/mL (≈ 0.295 µM) | ≤ 0.008 µg/mL | 0.015 µg/mL (≈ 0.0177 µM) | 8 µg/mL (≈ 9.43 µM) | 0.125 µg/mL (≈ 0.147 µM)
2 | CC[C@H]1OC(=O)[C@H](C)C(=O)[C@H](C)[C@@H](O[C@@H]2O[C@H](C)C[C@H](N(C)C)[C@H]2O)[C@@](C)(OCC#Cc2cccnc2)C[C@@H](C)C2=NCCN3C(=O)O[C@@]1(C)[C@H]3[C@H]2C | 0.2 µg/mL (≈ 0.271 µM) | 64 µg/mL (≈ 86.6 µM) | 0.2 µg/mL (≈ 0.271 µM) | 1 µg/mL (≈ 1.35 µM) | 0.03 µg/mL (≈ 0.0406 µM) | 0.03 µg/mL (≈ 0.0406 µM) | 2 µg/mL (≈ 2.71 µM) | > 128 µg/mL
3 | CC[C@H]1OC(=O)[C@H](C)C(=O)[C@H](C)[C@@H](O[C@@H]2O[C@H](C)C[C@H](N(C)C)[C@H]2O)[C@@](C)(OCC#Cc2cccs2)C[C@@H](C)C2=NCCN3C(=O)O[C@@]1(C)[C@H]3[C@H]2C | 0.1 µg/mL (≈ 0.134 µM) | 64 µg/mL (≈ 86 µM) | 0.1 µg/mL (≈ 0.134 µM) | 0.25 µg/mL (≈ 0.336 µM) | 0.03 µg/mL (≈ 0.0403 µM) | 0.03 µg/mL (≈ 0.0403 µM) | 4 µg/mL (≈ 5.38 µM) | > 128 µg/mL
4 | CC[C@H]1OC(=O)[C@@](C)(F)C(=O)[C@H](C)[C@@H](O[C@@H]2O[C@H](C)C[C@H](N(C)C)[C@H]2O)[C@@](C)(OCC#Cc2ccc(-c3nnn(C)n3)s2)C[C@@H](C)C2=NCCN3C(=O)O[C@@]1(C)[C@H]3[C@H]2C | 0.125 µg/mL (≈ 0.148 µM) | 2 µg/mL (≈ 2.37 µM) | 0.5 µg/mL (≈ 0.592 µM) | 0.25 µg/mL (≈ 0.296 µM) | ≤ 0.008 µg/mL | ≤ 0.008 µg/mL | 4 µg/mL (≈ 4.74 µM) | 0.125 µg/mL (≈ 0.148 µM)
5 | CC[C@H]1OC(=O)[C@H](C)C(=O)[C@H](C)[C@@H](O[C@@H]2O[C@H](C)C[C@H](N(C)C)[C@H]2O)[C@@](C)(OCC#Cc2ccc(-c3cccs3)cc2)C[C@@H](C)C2=NCCN3C(=O)O[C@@]1(C)[C@H]3[C@H]2C | 0.03 µg/mL (≈ 0.0366 µM) | 4 µg/mL (≈ 4.88 µM) | 0.5 µg/mL (≈ 0.61 µM) | ≤ 0.008 µg/mL | ≤ 0.008 µg/mL | ≤ 0.008 µg/mL | 2 µg/mL (≈ 2.44 µM) | ≤ 0.008 µg/mL
6 | CC[C@H]1OC(=O)[C@H](C)C(=O)[C@H](C)[C@@H](O[C@@H]2O[C@H](C)C[C@H](N(C)C)[C@H]2O)[C@@](C)(OCC#Cc2cnc3c(F)cccc3c2)C[C@@H](C)C2=NCCN3C(=O)O[C@@]1(C)[C@H]3[C@H]2C | 0.1 µg/mL (≈ 0.124 µM) | 0.5 µg/mL (≈ 0.62 µM) | 0.06 µg/mL (≈ 0.0744 µM) | 0.25 µg/mL (≈ 0.31 µM) | ≤ 0.008 µg/mL | 0.004 µg/mL (≈ 0.00496 µM) | 2 µg/mL (≈ 2.48 µM) | 4 µg/mL (≈ 4.96 µM)
7 | CC[C@H]1OC(=O)[C@@](C)(F)C(=O)[C@H](C)[C@@H](O[C@@H]2O[C@H](C)C[C@H](N(C)C)[C@H]2O)[C@@](C)(OCC#Cc2cnc3c(F)cccc3c2)C[C@@H](C)C2=NCCN3C(=O)O[C@@]1(C)[C@H]3[C@H]2C | 0.125 µg/mL (≈ 0.152 µM) | 0.25 µg/mL (≈ 0.303 µM) | 0.25 µg/mL (≈ 0.303 µM) | 0.125 µg/mL (≈ 0.152 µM) | ≤ 0.008 µg/mL | ≤ 0.008 µg/mL | 4 µg/mL (≈ 4.85 µM) | 0.125 µg/mL (≈ 0.152 µM)
8 | CC[C@H]1OC(=O)[C@H](C)C(=O)[C@H](C)[C@@H](O[C@@H]2O[C@H](C)C[C@H](N(C)C)[C@H]2O)[C@@](C)(OCC#Cc2cnc3c(OC)cccc3c2)C[C@@H](C)C2=NCCN3C(=O)O[C@@]1(C)[C@H]3[C@H]2C | 0.06 µg/mL (≈ 0.0733 µM) | 4 µg/mL (≈ 4.88 µM) | 0.25 µg/mL (≈ 0.305 µM) | 0.06 µg/mL (≈ 0.0733 µM) | ≤ 0.008 µg/mL | ≤ 0.008 µg/mL | 2 µg/mL (≈ 2.44 µM) | 8 µg/mL (≈ 9.77 µM)
9 | CC[C@H]1OC(=O)[C@H](C)C(=O)[C@H](C)[C@@H](O[C@@H]2O[C@H](C)C[C@H](N(C)C)[C@H]2O)[C@@](C)(OCC#Cc2ccccc2)C[C@@H](C)C2=NCCN3C(=O)O[C@@]1(C)[C@H]3[C@H]2C | 0.2 µg/mL (≈ 0.271 µM) | 64 µg/mL (≈ 86.7 µM) | 0.2 µg/mL (≈ 0.271 µM) | 0.5 µg/mL (≈ 0.678 µM) | 0.06 µg/mL (≈ 0.0813 µM) | 0.03 µg/mL (≈ 0.0407 µM) | 8 µg/mL (≈ 10.8 µM) | > 128 µg/mL
10 | CC[C@H]1OC(=O)[C@H](C)C(=O)[C@H](C)[C@@H](O[C@@H]2O[C@H](C)C[C@H](N(C)C)[C@H]2O)[C@@](C)(OCC#Cc2ccc(-c3ccccn3)cc2)C[C@@H](C)C2=NCCN3C(=O)O[C@@]1(C)[C@H]3[C@H]2C | 0.03 µg/mL (≈ 0.0368 µM) | 8 µg/mL (≈ 9.82 µM) | 0.25 µg/mL (≈ 0.307 µM) | ≤ 0.008 µg/mL | ≤ 0.008 µg/mL | ≤ 0.008 µg/mL | 1 µg/mL (≈ 1.23 µM) | ≤ 0.008 µg/mL
11 | CC[C@H]1OC(=O)[C@H](C)C(=O)[C@H](C)[C@@H](O[C@@H]2O[C@H](C)C[C@H](N(C)C)[C@H]2O)[C@@](C)(OC)C[C@@H](C)C2=NCCN3C(=O)O[C@@]1(C)[C@H]3[C@H]2C | 0.1 µg/mL (≈ 0.157 µM) | > 128 µg/mL | 0.1 µg/mL (≈ 0.157 µM) | 1 µg/mL (≈ 1.57 µM) | 0.06 µg/mL (≈ 0.0941 µM) | 0.06 µg/mL (≈ 0.0941 µM) | 4 µg/mL (≈ 6.27 µM) | > 128 µg/mL
12 | CC[C@H]1OC(=O)[C@H](C)C(=O)[C@H](C)[C@@H](O[C@@H]2O[C@H](C)C[C@H](N(C)C)[C@H]2O)[C@@](C)(OCC#Cc2ccc(-c3nnn(C)n3)s2)C[C@@H](C)C2=NCCN3C(=O)O[C@@]1(C)[C@H]3[C@H]2C | 0.125 µg/mL (≈ 0.151 µM) | 2 µg/mL (≈ 2.42 µM) | 0.5 µg/mL (≈ 0.605 µM) | 0.06 µg/mL (≈ 0.0726 µM) | ≤ 0.008 µg/mL | ≤ 0.008 µg/mL | 4 µg/mL (≈ 4.84 µM) | 0.003 µg/mL (≈ 0.00363 µM)
13 | CC[C@H]1OC(=O)[C@H](C)C(=O)[C@H](C)[C@@H](O[C@@H]2O[C@H](C)C[C@H](N(C)C)[C@H]2O)[C@@](C)(OCC#CCCc2ccc(-c3ccccn3)cc2)C[C@@H](C)C2=NCCN3C(=O)O[C@@]1(C)[C@H]3[C@H]2C | 0.25 µg/mL (≈ 0.297 µM) | 0.5 µg/mL (≈ 0.593 µM) | 0.25 µg/mL (≈ 0.297 µM) | 0.06 µg/mL (≈ 0.0712 µM) | ≤ 0.008 µg/mL | ≤ 0.008 µg/mL | 2 µg/mL (≈ 2.37 µM) | 0.03 µg/mL (≈ 0.0356 µM)
14 | CC[C@H]1OC(=O)[C@H](C)C(=O)[C@H](C)[C@@H](O[C@@H]2O[C@H](C)C[C@H](N(C)C)[C@H]2O)[C@@](C)(OCC#Cc2cnc3ccccc3c2)C[C@@H](C)C2=NCCN3C(=O)O[C@@]1(C)[C@H]3[C@H]2C | 0.1 µg/mL (≈ 0.127 µM) | 1 µg/mL (≈ 1.27 µM) | 0.1 µg/mL (≈ 0.127 µM) | 0.25 µg/mL (≈ 0.317 µM) | 0.015 µg/mL (≈ 0.019 µM) | ≤ 0.004 µg/mL | 2 µg/mL (≈ 2.53 µM) | 2 µg/mL (≈ 2.53 µM)
15 | CC[C@H]1OC(=O)[C@H](C)C(=O)[C@H](C)[C@@H](O[C@@H]2O[C@H](C)C[C@H](N(C)C)[C@H]2O)[C@](C)(OCC=Cc2cnc3ccccc3c2)C[C@@H](C)C(=O)[C@H](C)[C@H]2NC(=O)O[C@@]21C [CETHROMYCIN] | 0.05 µg/mL (≈ 0.0653 µM) | 1 µg/mL (≈ 1.31 µM) | 0.05 µg/mL (≈ 0.0653 µM) | 0.25 µg/mL (≈ 0.326 µM) | < 0.005 µg/mL | 0.03 µg/mL (≈ 0.0392 µM) | 2 µg/mL (≈ 2.61 µM) | 16 µg/mL (≈ 20.9 µM)
16 | CC[C@H]1OC(=O)[C@H](C)[C@@H](O[C@H]2C[C@@](C)(OC)[C@@H](O)[C@H](C)O2)[C@H](C)[C@@H](O[C@@H]2O[C@H](C)C[C@H](N(C)C)[C@H]2O)[C@](C)(O)C[C@@H](C)C(=O)[C@H](C)[C@@H](O)[C@]1(C)O [ERYTHROMYCIN] | 6.2 µg/mL (≈ 8.45 µM) | > 128 µg/mL | 0.39 µg/mL (≈ 0.531 µM) | 16 µg/mL (≈ 21.8 µM) | 0.03 µg/mL (≈ 0.0409 µM) | 0.06 µg/mL (≈ 0.0818 µM) | 8 µg/mL (≈ 10.9 µM) | > 128 µg/mL

Reference: ChEMBL document CHEMBL1145260, “Design, synthesis and structure-activity relationships of 6-O-arylpropargyl diazalides with potent activity against multidrug-resistant Streptococcus pneumoniae” (2005)
